The target in series [1] is T1, NaV1.7 (Homo sapiens, UniProt Q15858).
T1 construct: expressed in transfected cells; host or cells: unnamed tetracycline-inducible cell line, kept under hygromycin and blasticidin selection
Description: Nav1.7 intracellular inhibition (internal block), whole cell patch clamp. To be noted: % inhibition at 1 μM test concentration, compound in internal solution, 5 Hz stimulation. It counts as cell-based. As for the experimental part:
(§1) Representative compounds of the invention were synthesized according to the described methods and tested for the ability to inhibit voltage-gated sodium channels.
(§2) NaV1.7 was expressed upon induction with tetracycline. Cells were cultured in DMEM containing 10% dialyzed Fetal Bovine Serum (VWR, Radnor, PA), 1% Glutamax (VWR, Radnor, PA), 1% Penicillin-Streptomycin (VWR, Radnor, PA), 100 mg/L Hygromycin (Thermo Fisher Scientific, Waltham, MA and 5 mg/L Blasticidin (Alfa Aesar, Haverhill, MA). Cells were grown and maintained at 37° C. in a humidified environment containing 10% CO2 in air. Cells were detached from the culture flask for passage and harvested using 0.05% Trypsin-EDTA (Thermo Fisher Scientific, Waltham, MA). To induce NaV1.7, cells were induced with tetracycline ([…], IBI Scientific, Peosta, IA) the day before recording and plated onto 24-well plates. Cells were washed with DPBS (VWR, Radnor, PA), trypsinized and then triturated five times in 10 mL of growth media to break apart cell aggregates. For one 24-well plate, 2 mL of cell suspension was mixed with 23 mL of fresh growth media and […] tetracycline added. 1 ml of mixed media with cells was then added to each well of a 24-well plate, with a 12 mm coverslip already placed in the bottom of the well. Cells were then incubated in 37° C. and 10% CO2 overnight.
(§3) The intracellular solution contained the following (in mM) CsCl 135, NaCl 10, EGTA 10, HEPES 10, MgCl2 2, adjusted to pH 7.2 with CsOH. The external solution was a normal Ringer solution containing (in mM) NaCl 155, HEPES 10, glucose 10, KCl 3.5, CaCl2) 1.5, MgCl2 1 adjusted to pH 7.4 with NaOH. CsCl is from Alfa Aesar, Haverhill, MA. All other chemicals are from Sigma-Aldrich, St. Louis, MO. In order to test the degree of internal block by test compounds the compounds were dissolved in internal solution at the indicated test concentration. […] In order to test the degree of external block by test compounds the compounds were dissolved in external solution at the indicated test concentration.
(§4) 18-24 hours after cells were induced with tetracycline, coverslips were placed into a chamber filled with Normal Ringer solution at room temperature and the chamber placed on a microscope. Pipettes were pulled from borosilicate glass on a P97 puller (Sutter Instrument, Novato, CA) and polished with a MF-830 Microforge (Narishige International USA, Inc, Amityville, NY) to have a resistance of 1.5-2.5 MΩ when filled with CsCl internal solution at room temperature. Healthy cells (those that are round and translucent with no visible blemishes) were chosen for seal formation. A seal was formed between the pipette and the cell, and a brief pulse of suction was used to “break in” and establish the whole-cell configuration. The membrane potential was held at −100 mV before the voltage protocol began. Only cells with series resistance between 1.5-5 MΩ were retained for analysis. The voltage protocol was as follows: Cells were held at −100 mV for 12 ms followed by a hyperpolarizing step to −105 mV for 12 ms to monitor the leak. Cells were then stepped back to −100 mV for 40 ms. Cells were then depolarized to −20 mV for 10 ms and then returned to −100 mV for 26 ms.
Once the recording was started, the voltage protocol was run at 30 second intervals for 5 minutes to get a stable baseline. This was followed by four 30-second periods of 5 Hz stimulation of the same voltage protocol separated by 1 minute of rest which was then followed by 0.33 Hz stimulation after the last train. Currents were recorded using PatchMaster software with Heka EPC10 (HEKA Electronics, Lambrecht, Germany). Only cells with inward current amplitudes at −20 mV between 400 pA and 4 nA were accepted. In addition, cells having leak currents greater than 10% of their current amplitudes were discarded. […]
Background: In patch-clamp work, channel activity is measured electrically.

Series [2] concerns the target T1, NaV1.7. Kind of series: Nav1.7 extracellular inhibition (external block), whole cell patch clamp. The class given is cell-based. To be noted: compound in external solution for 5 minutes, 5 Hz stimulation; for inhibition at 10 µM: % inhibition at 10 μM test concentration; for inhibition at 30 µM: % inhibition at 30 μM test concentration. As for the experimental part:
as §1, §2, §3, §4
Once the recording was started, the voltage protocol was run at 30 second intervals for 5 minutes to get a stable baseline. […] Currents were recorded using PatchMaster software with Heka EPC10 (HEKA Electronics, Lambrecht, Germany). […]

A short description of series [3]: PAMPA membrane permeability assay. The class given is in vitro ADME. To be noted: pH 7.4 buffer, GIT lipid, 4 hours incubation. As for the experimental part:
The PAMPA assay (pION, Inc., Woburn MA) was used to determine the ability of compounds of the invention to cross an artificial lipid membrane by passive diffusion. Test compounds were dissolved in DMSO (10 mM) and diluted 200-fold in buffer (pION Inc., pH 7.4) to provide 50 uM stock solutions. Buffer (150 μL) was added to a UV blank plate and stock solutions (150 μL) were transferred to a UV reference plate. The blank and reference spectrum were read using a spectrophotometer. Stock solutions (200 μL) were added to the donor plate of the PAMPA sandwich plate and an accept plate painted with GIT lipid (pION Inc, 5 μL) was placed on top. Buffer (200 μL) was added to the acceptor plate and the PAMPA sandwich plate was incubated for 4 hours. Aliquots (150 μL) from the acceptor plate were added to a UV plate and read as acceptor spectrum. Aliquots (150 μL) of the donor solutions were added to a UV analysis plate and read as donor spectrum. The permeability coefficient of test compounds was calculated using PAMPA Explorer™ software (version 3.5.0.4) based on the AUC of the reference plate, the donor plate, and the acceptor plate.

T1 sequence (Q15858 whole entry): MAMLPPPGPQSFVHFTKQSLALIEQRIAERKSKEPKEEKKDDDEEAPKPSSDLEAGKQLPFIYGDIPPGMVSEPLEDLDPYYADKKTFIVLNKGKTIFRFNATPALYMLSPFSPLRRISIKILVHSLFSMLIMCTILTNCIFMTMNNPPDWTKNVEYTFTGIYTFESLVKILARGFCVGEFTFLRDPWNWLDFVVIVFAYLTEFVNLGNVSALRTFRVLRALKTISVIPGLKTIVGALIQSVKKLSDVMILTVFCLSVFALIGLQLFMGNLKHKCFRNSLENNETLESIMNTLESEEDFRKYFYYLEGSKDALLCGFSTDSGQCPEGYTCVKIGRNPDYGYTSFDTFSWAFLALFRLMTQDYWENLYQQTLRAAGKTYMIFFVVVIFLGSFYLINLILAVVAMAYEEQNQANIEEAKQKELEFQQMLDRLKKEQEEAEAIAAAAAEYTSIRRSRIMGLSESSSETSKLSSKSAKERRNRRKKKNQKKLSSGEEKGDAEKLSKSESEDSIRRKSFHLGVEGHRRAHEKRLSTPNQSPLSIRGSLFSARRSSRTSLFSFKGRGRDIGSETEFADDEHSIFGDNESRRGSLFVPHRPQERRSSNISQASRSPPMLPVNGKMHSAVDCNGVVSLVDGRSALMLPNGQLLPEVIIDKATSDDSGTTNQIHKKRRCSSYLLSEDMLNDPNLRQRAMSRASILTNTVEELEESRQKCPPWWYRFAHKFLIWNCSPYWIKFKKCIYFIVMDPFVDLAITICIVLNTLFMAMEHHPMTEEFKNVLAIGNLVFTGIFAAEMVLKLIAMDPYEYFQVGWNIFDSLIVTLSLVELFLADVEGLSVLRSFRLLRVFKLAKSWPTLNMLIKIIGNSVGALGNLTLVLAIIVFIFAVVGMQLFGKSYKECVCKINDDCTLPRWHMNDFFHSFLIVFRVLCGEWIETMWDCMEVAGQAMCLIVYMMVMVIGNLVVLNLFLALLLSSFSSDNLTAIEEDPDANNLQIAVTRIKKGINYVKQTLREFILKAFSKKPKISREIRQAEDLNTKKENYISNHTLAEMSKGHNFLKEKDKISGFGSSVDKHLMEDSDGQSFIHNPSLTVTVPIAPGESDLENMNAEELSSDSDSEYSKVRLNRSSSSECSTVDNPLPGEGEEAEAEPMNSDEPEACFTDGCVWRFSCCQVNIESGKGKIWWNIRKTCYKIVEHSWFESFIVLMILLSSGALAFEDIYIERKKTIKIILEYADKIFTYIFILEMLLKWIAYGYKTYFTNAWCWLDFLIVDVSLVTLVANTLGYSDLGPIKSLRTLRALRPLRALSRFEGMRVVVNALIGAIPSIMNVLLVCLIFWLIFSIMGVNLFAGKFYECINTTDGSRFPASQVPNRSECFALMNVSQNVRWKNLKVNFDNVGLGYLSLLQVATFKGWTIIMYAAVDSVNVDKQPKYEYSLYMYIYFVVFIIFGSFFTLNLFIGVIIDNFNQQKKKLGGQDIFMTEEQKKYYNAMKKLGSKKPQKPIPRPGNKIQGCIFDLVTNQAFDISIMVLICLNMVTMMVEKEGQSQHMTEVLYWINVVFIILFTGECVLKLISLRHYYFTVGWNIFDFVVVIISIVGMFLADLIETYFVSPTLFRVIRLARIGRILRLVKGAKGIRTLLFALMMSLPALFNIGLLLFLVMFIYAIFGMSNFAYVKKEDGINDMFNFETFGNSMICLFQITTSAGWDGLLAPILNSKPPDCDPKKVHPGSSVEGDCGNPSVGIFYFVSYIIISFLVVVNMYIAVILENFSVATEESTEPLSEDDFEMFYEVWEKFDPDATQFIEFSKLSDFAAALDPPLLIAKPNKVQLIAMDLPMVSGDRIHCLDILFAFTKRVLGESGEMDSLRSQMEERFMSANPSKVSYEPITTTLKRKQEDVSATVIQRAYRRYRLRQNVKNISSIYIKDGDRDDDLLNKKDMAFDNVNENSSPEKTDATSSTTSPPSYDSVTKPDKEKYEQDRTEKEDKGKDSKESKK

`CC[N+]1(CC(=O)Nc2c(C)cccc2C)CCCC(c2ccccc2)C1` (stereo not drawn) [Compound 1A, 1-(2-((2,6-dimethylphenyl)amino)-2-oxoethyl)-1-ethyl-3-phenylpiperidin-1-ium iodide]: the inhibition (commonly the percentage by which the read-out fell short of the control) at 1 µM in series [1] was above 90%.
Regarding `CC[N+]1(CC(=O)Nc2c(C)cccc2C)CCC[C@@H](c2ccccc2)C1.[I-]` (stereo partly drawn) [Compound 2A], the inhibition at 10 µM in series [2] is below 30%. This molecule also yielded an inhibition at 1 µM in series [1] above 90%. Besides, the “PAMPA (10^−6 cm/s)” value in series [3] is listed as “+ (“+” (<0.1 10^−6 cm/s))”.
In series [2], `CC[N+]1(CC(=O)Nc2c(C)cccc2C)CCC[C@H](c2ccccc2)C1.[I-]` (stereo partly drawn) [Compound 3A] had an inhibition at 10 µM of 30 to 70%. Besides, in series [1], the inhibition at 1 µM was above 90%. In addition, in series [3], the “PAMPA (10^−6 cm/s)” value is “+ (“+” (<0.1 10^−6 cm/s))”.
Regarding `Cc1cccc(C)c1NC(=O)C[N+]1(C)CCCC(c2ccccc2)C1.[I-]` (stereo not drawn) [Compound 4A], in series [1], the inhibition at 1 µM was in the range of 70 to 90%. Moreover, in series [3], the “PAMPA (10^−6 cm/s)” value is “+ (“+” (<0.1 10^−6 cm/s))”.
In the case of `CC[N+]1(CC(=O)Nc2c(C)cccc2C)CCCCC1c1ccccc1` (stereo not drawn) [Compound 5A], the inhibition at 30 µM in series [2] fell in the range of 30 to 70%. Besides, the inhibition at 1 µM in series [1] is 70 to 90%. Also, the “PAMPA (10^−6 cm/s)” value in series [3] was “+ (“+” (<0.1 10^−6 cm/s))”.
On to `CCC[N+]1(CC(=O)Nc2c(C)cccc2C)CCCC(c2ccccc2)C1` (stereo not drawn) [Compound 6A], for which, in series [2], the inhibition at 10 µM lay in the range of 30 to 70%. The molecule also had an inhibition at 1 µM in series [1] above 90%. Besides, the “PAMPA (10^−6 cm/s)” value in series [3] is “+ (“+” (<0.1 10^−6 cm/s))”.
Molecule `Cc1cccc(C)c1NC(=O)C[N+]1(C)CCCCC1c1ccccc1.[I-]` (stereo not drawn) [Compound 8A] came in with an inhibition at 30 µM in series [2] of 30 to 70%. The inhibition at 1 µM in series [1] was 30 to 70%. For the same molecule, in series [3], the “PAMPA (10^−6 cm/s)” value is given as “+ (“+” (<0.1 10^−6 cm/s))”.
For the molecule `COC(=O)C[N+]1(CC(=O)Nc2c(C)cccc2C)CCCCC1c1ccccc1` (stereo not drawn) [Compound 9A], the inhibition at 1 µM in series [1] was 30 to 70%. In series [3], the “PAMPA (10^−6 cm/s)” value is listed as “+ (“+” (<0.1 10^−6 cm/s))”.
As to `CCC[N+]1(CC(=O)Nc2c(C)cccc2C)CCCCC1c1ccccc1` (stereo not drawn) [Compound 10A], the inhibition at 1 µM in series [1] was 30 to 70%.
